Measured values from US8158657B2, “Heterocycles substituted pyridine derivatives and antifungal agent containing thereof” (Eisai R&D Management Co., Ltd., priority 2005, dated 2012).
Converted amounts (≈) assume the structure as drawn.

The molecules below were run on A. fumigatus Tsukuba strain (assay: Anti-Aspergillus activity, MIC measurement). Conditions: RPMI1640, 42-48 hours at 35° C., visual inspection, read-out: Anti-Aspergillus Activity (minimum inhibitory concentration, MIC).
Format: cell-based
Method in brief: (§1)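 C. albicans CAF2-1 was grown 48 h at 30° C. in SDB and diluted in RPMI1640 to 1.2×10^3 cells/mL. Frozen A. fumigatus Tsukuba was diluted to 4.5×10^3 cells/mL. Compounds, two-fold serially diluted in DMSO from 2.5 mg/mL, were cultured aerobically with fungi for 42-48 h at 35° C.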

In order of rising MIC:
1. Nc1ccc(-c2cc(Cc3ccc(Oc4ccc(F)cc4)s3)no2)c(N)n1 [Example 155]  0.1 µg/mL (≈ 0.261 µM)
2. Nc1ncccc1-c1cc(Cc2ccc(COc3cccc(F)n3)cc2)no1 [Example 55, 3-(3-(4-(6-Fluoro-pyridin-2-yloxymethyl)-benzyl)-isoxazol-5-yl)-pyridin-2-ylamine]  0.1 µg/mL (≈ 0.266 µM)
3. Nc1ccc(-c2cc(Cc3ccn(Cc4ccccc4)c3)no2)c(N)n1 [Example 115, 3-(3-(1-Benzyl-1H-pyrrol-3-ylmethyl)-isoxazol-5-yl)-pyridin-2,6-diamine]  0.2 µg/mL (≈ 0.579 µM)
4. Nc1ncccc1-c1cc(Cc2ccc(COc3ccccn3)cc2)on1 [Example 30, 3-(5-(4-(Pyridin-2-yloxymethyl)-benzyl)-isoxazol-3-yl)-pyridin-2-ylamine]  0.2 µg/mL (≈ 0.558 µM)
5. Cc1ccc(-c2cc(Cc3ccc(COc4ccccn4)cc3)no2)c(N)n1 [Example 171]  0.39 µg/mL (≈ 1.05 µM)
6. Nc1ncccc1-c1cc(Cc2ccc(OCc3cccc(Cl)n3)cc2)no1 [Example 52, 3-(3-(4-(6-Chloro-pyridin-2-ylmethoxy)-benzyl)-isoxazol-5-yl)-pyridin-2-ylamine]  0.39 µg/mL (≈ 0.993 µM)
7. Nc1ncccc1-c1cc(Cc2ccc(OCc3ccccn3)cc2)no1 [Example 9, 3-(3-(4-(Pyridin-2-ylmethoxy)-benzyl)-isoxazol-5-yl)-pyridin-2-ylamine]  0.39 µg/mL (≈ 1.09 µM)
8. CCCCOCc1ccc(Cc2cc(-c3ccc(N)nc3N)on2)cc1 [Example 16, 3-(3-(4-Butoxymethyl-benzyl)-isoxazol-5-yl)-pyridin-2,6-diamine]  0.39 µg/mL (≈ 1.11 µM)
9. Nc1ncccc1-c1cc(Cc2ccc(OCc3cc(Cl)ccn3)cc2)no1 [Example 51, 3-(3-(4-(4-Chloro-pyridin-2-ylmethoxy)-benzyl)-isoxazol-5-yl)-pyridin-2-ylamine]  0.39 µg/mL (≈ 0.993 µM)
10. Nc1ncccc1-c1cnn(Cc2ccc(COc3ccccn3)cc2)c1 [Example 32, 3-(1-(4-(Pyridin-2-yloxymethyl)-benzyl)-1H-pyrazol-4-yl)-pyridin-2-ylamine]  0.78 µg/mL (≈ 2.18 µM)
11. Nc1ccc(-c2cc(Cc3ccc(OCc4cc(Cl)ccn4)cc3)no2)c(N)n1 [Example 109, 3-(3-(4-(4-Chloro-pyridin-2-ylmethoxy)-benzyl)-isoxazol-5-yl)-pyridin-2,6-diamine]  0.78 µg/mL (≈ 1.91 µM)
12. Nc1ccc(-c2cc(Cc3ccc(COc4ccccc4)nc3)no2)c(N)n1 [Example 111, 3-(3-(6-Phenoxymethyl-pyridin-3-ylmethyl)-isoxazol-5-yl)-pyridin-2,6-diamine]  0.78 µg/mL (≈ 2.09 µM)
13. CCCCOCc1ccc(Cn2cc(-c3ccc(N)nc3N)cn2)cc1 [Example 38, 3-(1-(4-Butoxymethyl-benzyl)-1H-pyrazol-4-yl)-pyridin-2,6-diamine]  1.56 µg/mL (≈ 4.44 µM)

What follows are molecules tested on C. albicans CAF2-1 strain (assay: Anti-Candida activity, MIC measurement). Conditions: CAF21STRAIN, C. albicans CAF2-1, RPMI1640, 42-48 hours at 35° C., visual inspection, read-out: Anti-Candida Activity (minimum inhibitory concentration, MIC).
Format: cell-based
Method in brief: as §1

In order of rising MIC:
1. Nc1ncccc1-c1cc(Cc2ccc(COc3cccc(F)n3)cc2)no1 [Example 55, 3-(3-(4-(6-Fluoro-pyridin-2-yloxymethyl)-benzyl)-isoxazol-5-yl)-pyridin-2-ylamine]  0.05 µg/mL (≈ 0.133 µM)
2. Nc1ccc(-c2cc(Cc3ccc(Oc4ccc(F)cc4)s3)no2)c(N)n1 [Example 155]  0.1 µg/mL (≈ 0.261 µM)
3. Nc1ccc(-c2cc(Cc3ccn(Cc4ccccc4)c3)no2)c(N)n1 [Example 115, 3-(3-(1-Benzyl-1H-pyrrol-3-ylmethyl)-isoxazol-5-yl)-pyridin-2,6-diamine]  0.1 µg/mL (≈ 0.29 µM)
4. Nc1ncccc1-c1cc(Cc2ccc(COc3ccccn3)cc2)on1 [Example 30, 3-(5-(4-(Pyridin-2-yloxymethyl)-benzyl)-isoxazol-3-yl)-pyridin-2-ylamine]  0.1 µg/mL (≈ 0.279 µM)
5. Nc1ncccc1-c1cc(Cc2ccc(OCc3cc(Cl)ccn3)cc2)no1 [Example 51, 3-(3-(4-(4-Chloro-pyridin-2-ylmethoxy)-benzyl)-isoxazol-5-yl)-pyridin-2-ylamine]  0.1 µg/mL (≈ 0.255 µM)
6. Cc1ccc(-c2cc(Cc3ccc(COc4ccccn4)cc3)no2)c(N)n1 [Example 171]  0.2 µg/mL (≈ 0.537 µM)
7. Nc1ncccc1-c1cnn(Cc2ccc(COc3ccccn3)cc2)c1 [Example 32, 3-(1-(4-(Pyridin-2-yloxymethyl)-benzyl)-1H-pyrazol-4-yl)-pyridin-2-ylamine]  0.2 µg/mL (≈ 0.56 µM)
8. Nc1ncccc1-c1cc(Cc2ccc(OCc3ccccn3)cc2)no1 [Example 9, 3-(3-(4-(Pyridin-2-ylmethoxy)-benzyl)-isoxazol-5-yl)-pyridin-2-ylamine]  0.2 µg/mL (≈ 0.558 µM)
9. Nc1ccc(-c2cc(Cc3ccc(OCc4cc(Cl)ccn4)cc3)no2)c(N)n1 [Example 109, 3-(3-(4-(4-Chloro-pyridin-2-ylmethoxy)-benzyl)-isoxazol-5-yl)-pyridin-2,6-diamine]  0.39 µg/mL (≈ 0.956 µM)
10. Nc1ncccc1-c1cc(Cc2ccc(OCc3cccc(Cl)n3)cc2)no1 [Example 52, 3-(3-(4-(6-Chloro-pyridin-2-ylmethoxy)-benzyl)-isoxazol-5-yl)-pyridin-2-ylamine]  0.39 µg/mL (≈ 0.993 µM)
11. Nc1ccc(-c2cc(Cc3ccc(COc4ccccc4)nc3)no2)c(N)n1 [Example 111, 3-(3-(6-Phenoxymethyl-pyridin-3-ylmethyl)-isoxazol-5-yl)-pyridin-2,6-diamine]  0.39 µg/mL (≈ 1.04 µM)
12. CCCCOCc1ccc(Cc2cc(-c3ccc(N)nc3N)on2)cc1 [Example 16, 3-(3-(4-Butoxymethyl-benzyl)-isoxazol-5-yl)-pyridin-2,6-diamine]  0.39 µg/mL (≈ 1.11 µM)
13. CCCCOCc1ccc(Cn2cc(-c3ccc(N)nc3N)cn2)cc1 [Example 38, 3-(1-(4-Butoxymethyl-benzyl)-1H-pyrazol-4-yl)-pyridin-2,6-diamine]  0.78 µg/mL (≈ 2.22 µM)

These molecules were tested on C. albicans E81022 strain (assay: Experimental systemic candidal infection model in mice). Conditions: 2.5 mg/kg, peroral, 3 times every 4 hours, female ICR mice, observed until 14 days after infection.
Format: in vivo
Procedure: A standing culture of C. albicans E81022 strain was carried out for 48 hours at 30° C. in sabouraud dextrose agar medium (SDA), the recovered fungal cells were suspended in sterilized physiological saline. By counting the fungal number on cytometry plate, the suspension was diluted to 2×10^7 cells/mL with sterilized physiological saline to serve fungal inoculum.
The fungal inoculum was used in the amounts of 0.2 mL to inoculate 4.5 to 5.5 week-old female ICR mice in the tail vein (4×10^6 cells/mouse).
From 0.5 to 1 hour after fungal inoculation, 0.2 mL of agent solution (dissolved or suspended in sterilized physiological saline containing 6.5% dimethyl sulfoxide and 3.5% Tween 80) was administered into the stomach using a peroral probe, 3 times every 4 hours. The agent concentration was 2.5 mg/kg or 10 mg/kg, and the number of animals in one group was 5 animals.
The protective effect was determined by observing life/death until 14 days after infection and calculating the mean survival days.

In order of rising “Mean Survival Days” value:
1. CCCCOCc1ccc(Cn2cc(-c3ccc(N)nc3N)cn2)cc1 [Example 38, 3-(1-(4-Butoxymethyl-benzyl)-1H-pyrazol-4-yl)-pyridin-2,6-diamine]  4.8 days
2. CCCCOCc1ccc(Cc2cc(-c3ccc(N)nc3N)on2)cc1 [Example 16, 3-(3-(4-Butoxymethyl-benzyl)-isoxazol-5-yl)-pyridin-2,6-diamine]  4.8 days
3. Cc1ccc(-c2cc(Cc3ccc(COc4ccccn4)cc3)no2)c(N)n1 [Example 171]  8.4 days
4. Nc1ncccc1-c1cnn(Cc2ccc(COc3ccccn3)cc2)c1 [Example 32, 3-(1-(4-(Pyridin-2-yloxymethyl)-benzyl)-1H-pyrazol-4-yl)-pyridin-2-ylamine]  10.2 days
5. Nc1ccc(-c2cc(Cc3ccc(Oc4ccc(F)cc4)s3)no2)c(N)n1 [Example 155]  10.4 days
6. Nc1ncccc1-c1cc(Cc2ccc(OCc3cccc(Cl)n3)cc2)no1 [Example 52, 3-(3-(4-(6-Chloro-pyridin-2-ylmethoxy)-benzyl)-isoxazol-5-yl)-pyridin-2-ylamine]  10.6 days
7. Nc1ccc(-c2cc(Cc3ccn(Cc4ccccc4)c3)no2)c(N)n1 [Example 115, 3-(3-(1-Benzyl-1H-pyrrol-3-ylmethyl)-isoxazol-5-yl)-pyridin-2,6-diamine]  10.8 days
8. Nc1ccc(-c2cc(Cc3ccc(OCc4cc(Cl)ccn4)cc3)no2)c(N)n1 [Example 109, 3-(3-(4-(4-Chloro-pyridin-2-ylmethoxy)-benzyl)-isoxazol-5-yl)-pyridin-2,6-diamine]  11.0 days
9. Nc1ncccc1-c1cc(Cc2ccc(OCc3ccccn3)cc2)no1 [Example 9, 3-(3-(4-(Pyridin-2-ylmethoxy)-benzyl)-isoxazol-5-yl)-pyridin-2-ylamine]  12.8 days
10. Nc1ncccc1-c1cc(Cc2ccc(COc3ccccn3)cc2)on1 [Example 30, 3-(5-(4-(Pyridin-2-yloxymethyl)-benzyl)-isoxazol-3-yl)-pyridin-2-ylamine]  13.0 days
11. Nc1ncccc1-c1cc(Cc2ccc(OCc3cc(Cl)ccn3)cc2)no1 [Example 51, 3-(3-(4-(4-Chloro-pyridin-2-ylmethoxy)-benzyl)-isoxazol-5-yl)-pyridin-2-ylamine]  13.5 days
12. Nc1ccc(-c2cc(Cc3ccc(COc4ccccc4)nc3)no2)c(N)n1 [Example 111, 3-(3-(6-Phenoxymethyl-pyridin-3-ylmethyl)-isoxazol-5-yl)-pyridin-2,6-diamine]  13.6 days
13. Nc1ncccc1-c1cc(Cc2ccc(COc3cccc(F)n3)cc2)no1 [Example 55, 3-(3-(4-(6-Fluoro-pyridin-2-yloxymethyl)-benzyl)-isoxazol-5-yl)-pyridin-2-ylamine]  13.8 days

Same assay, conditions: 10 mg/kg, peroral, 3 times every 4 hours, female ICR mice, observed until 14 days after infection

In order of rising “Mean Survival Days” value:
1. CCCCOCc1ccc(Cn2cc(-c3ccc(N)nc3N)cn2)cc1 [Example 38, 3-(1-(4-Butoxymethyl-benzyl)-1H-pyrazol-4-yl)-pyridin-2,6-diamine]  10.0 days
2. Nc1ccc(-c2cc(Cc3ccc(OCc4cc(Cl)ccn4)cc3)no2)c(N)n1 [Example 109, 3-(3-(4-(4-Chloro-pyridin-2-ylmethoxy)-benzyl)-isoxazol-5-yl)-pyridin-2,6-diamine]  11.8 days
3. Nc1ncccc1-c1cnn(Cc2ccc(COc3ccccn3)cc2)c1 [Example 32, 3-(1-(4-(Pyridin-2-yloxymethyl)-benzyl)-1H-pyrazol-4-yl)-pyridin-2-ylamine]  12.2 days
4. Cc1ccc(-c2cc(Cc3ccc(COc4ccccn4)cc3)no2)c(N)n1 [Example 171]  12.6 days
5. CCCCOCc1ccc(Cc2cc(-c3ccc(N)nc3N)on2)cc1 [Example 16, 3-(3-(4-Butoxymethyl-benzyl)-isoxazol-5-yl)-pyridin-2,6-diamine]  12.8 days
6. Nc1ccc(-c2cc(Cc3ccc(Oc4ccc(F)cc4)s3)no2)c(N)n1 [Example 155]  13.0 days
7. Nc1ccc(-c2cc(Cc3ccn(Cc4ccccc4)c3)no2)c(N)n1 [Example 115, 3-(3-(1-Benzyl-1H-pyrrol-3-ylmethyl)-isoxazol-5-yl)-pyridin-2,6-diamine]  13.2 days
8. Nc1ncccc1-c1cc(Cc2ccc(OCc3cccc(Cl)n3)cc2)no1 [Example 52, 3-(3-(4-(6-Chloro-pyridin-2-ylmethoxy)-benzyl)-isoxazol-5-yl)-pyridin-2-ylamine]  13.4 days
9. Nc1ncccc1-c1cc(Cc2ccc(OCc3ccccn3)cc2)no1 [Example 9, 3-(3-(4-(Pyridin-2-ylmethoxy)-benzyl)-isoxazol-5-yl)-pyridin-2-ylamine]  14.0 days
10. Nc1ncccc1-c1cc(Cc2ccc(COc3cccc(F)n3)cc2)no1 [Example 55, 3-(3-(4-(6-Fluoro-pyridin-2-yloxymethyl)-benzyl)-isoxazol-5-yl)-pyridin-2-ylamine]  14.0 days
11. Nc1ncccc1-c1cc(Cc2ccc(OCc3cc(Cl)ccn3)cc2)no1 [Example 51, 3-(3-(4-(4-Chloro-pyridin-2-ylmethoxy)-benzyl)-isoxazol-5-yl)-pyridin-2-ylamine]  14.0 days
